Laboratory results taken from patent US20040171696A1, “Pharmaceutical composition for the treatment of the decline and/or damage of cognitive functions” (priority 2001, published 2004).

How the values were obtained:
Male Wistar rats = assay: step through passive avoidance learning; assay type: in vivo, rat; conditions: ip, FIG. 1
Experimental: Male Wistar rats weighing 200-220 g were used. The animals were obtained from Charles River Co. They were kept in a room with normal 12-12 h light dark cycle (light on: 06:00) at a relative humidity of 60±10%.
The experiment was performed in a five-channel “step through”-type passive avoidance learning apparatus. The equipment consisted of two adjacent Plexi-glass boxes of 20×20×16 cm. One of them was made of regular transparent Plexi-glass and the other one was made of black, non-transparent Plexi-glass. The boxes were connected with a 7.5×8 cm passage way, equipped with a computer-controlled guillotine-door. The passage of the rats through the door was detected by infrared photocells arranged in two parallel lines in the opening of the passage way. The door was automatically closed when the animals passed through. The dark compartment was equipped with stainless steel grid floor through which electric foot shocks could be delivered to the animals. […]
The individually numbered animals were placed into the light compartment of the equipment. […] Step through latency was automatically determined. […]
After 24 h the animals were placed again in the light compartment of the test apparatus and step-through latency was measured as described at Acquisition day, except that no foot shock was applied to the animals in any group on the second day. […]

central 5-HT2C receptors = central 5-HT2C receptors (Homo sapiens, UniProt P28335); conditions: cited from earlier work
[1] = 3 mg/kg single subcutaneous administration; cited from earlier work
[2] = cited from earlier work
[3] = intraperitoneal 1 and 10 mg/kg; cited from earlier work
central 5-HT2A receptors = central 5-HT2A receptors (Homo sapiens, UniProt P28223); conditions: cited from earlier work
[4] = per os 10 and 30 mg/kg; cited from earlier work
[5] = as low as 0.7 mg/kg intraperitoneal; cited from earlier work
rats = conditions: 1 and 10 mg/kg per os; cited from earlier work

central 5-HT2C receptors, sequence (P28335 33-458): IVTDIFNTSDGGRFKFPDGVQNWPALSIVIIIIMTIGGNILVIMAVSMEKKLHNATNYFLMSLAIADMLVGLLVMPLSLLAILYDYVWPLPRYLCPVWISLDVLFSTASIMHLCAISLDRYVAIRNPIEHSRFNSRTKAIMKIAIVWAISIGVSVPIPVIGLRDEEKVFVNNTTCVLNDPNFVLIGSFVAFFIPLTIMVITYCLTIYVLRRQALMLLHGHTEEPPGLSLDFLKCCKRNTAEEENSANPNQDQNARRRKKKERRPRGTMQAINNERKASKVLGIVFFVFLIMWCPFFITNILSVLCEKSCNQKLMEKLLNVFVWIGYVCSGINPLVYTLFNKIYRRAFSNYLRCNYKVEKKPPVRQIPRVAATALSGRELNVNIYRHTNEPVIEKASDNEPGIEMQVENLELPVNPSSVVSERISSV
central 5-HT2A receptors, sequence (P28223 whole entry): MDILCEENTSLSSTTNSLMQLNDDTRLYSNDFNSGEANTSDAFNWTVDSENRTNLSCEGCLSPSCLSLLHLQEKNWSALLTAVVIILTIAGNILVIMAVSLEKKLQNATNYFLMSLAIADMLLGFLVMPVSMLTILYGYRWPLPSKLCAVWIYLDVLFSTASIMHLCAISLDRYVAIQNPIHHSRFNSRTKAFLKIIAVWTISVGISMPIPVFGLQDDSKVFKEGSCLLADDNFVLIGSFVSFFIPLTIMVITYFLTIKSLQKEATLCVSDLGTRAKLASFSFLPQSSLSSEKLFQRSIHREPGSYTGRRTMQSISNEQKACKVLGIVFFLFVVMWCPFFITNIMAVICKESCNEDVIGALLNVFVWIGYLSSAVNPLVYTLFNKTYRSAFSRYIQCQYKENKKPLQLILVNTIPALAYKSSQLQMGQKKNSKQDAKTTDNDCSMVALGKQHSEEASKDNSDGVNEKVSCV

| SMILES | step-through latency into the dark compartment (Male Wistar rats; Day 1 administration, 30 min before Acquisition, latency on Day 2) | step-through latency into the dark compartment (Male Wistar rats; Day 2 administration, 30 min before Retention test) | binding to 5-HT2C receptors (central 5-HT2C receptors) | anxiolytic activity in light-dark model [1] | effect on CCK agonist induced anxiety in elevated plus-maze ([2]; CCK agonist induced anxiety) | activity in elevated plus-maze, alone ([2]; deramciclane alone) | effect in learned helplessness [3] | binding to 5-HT2A receptors (central 5-HT2A receptors) | activity in marble burying test [4] | number of social interactions [5] | effect in Vogel lick-conflict model (rats) |
| --- | --- | --- | --- | --- | --- | --- | --- | --- | --- | --- | --- |
| CN(C)CCO[C@]1(c2ccccc2)C[C@H]2CC[C@]1(C)C2(C)C.O=C(O)/C=C/C(=O)O [(1R,2S,4R)-(−)-2-(2-dimethylaminoethoxy)-2-phenyl-1,7,7-trimethyl-bicyclo[2.2.1]heptane-fumarate] | significantly increased | significantly increased | – | – | – | – | – | – | – | – | – |
| CN(C)CCO[C@]1(c2ccccc2)C[C@H]2CC[C@]1(C)C2(C)C [deramciclane, (1R,2S,4R)-(−)-2-(2-dimethylaminoethoxy)-2-phenyl-1,7,7-trimethylbicyclo[2.2.1]heptane] | – | – | binds | showed anxiolytic activity | antagonized CCK agonist induced anxiety | completely inactive | effective | binds | displayed significant activity | increased the number of social interactions | effective |
